Common to all, as to assay type: biochemical
In one test the target is PI3Kδ (p110δ/p85α)(h) (Homo sapiens, UniProt O00329). In words: Assay for phosphatidylinositol 3-kinase delta (PI3Kδ) activity, PI3K-HTRF kit. The conditions noted are these: TR-FRET; enzyme 0.725 μg/ml, 10 μM PIP2, 10 μM ATP. On the procedure:
[The source words this procedure for another target and says it was used here with some conditions changed.] (§1) The compounds of the present invention were assayed for the activity of phosphatidylinositol 3-kinase gamma (PI3Kγ) by using a PI3K enzyme-homogenous time resolved fluorescence (PI3K-HTRF) kit, which is available from Upstate (Millipore Co, Billerica, Mass., USA).
(§2) Three kinds of buffer solutions including a phosphorylation reaction solution (a reaction buffer containing 40 mM MgCl2 which is available from Upstate was diluted 4 times and added with 5 mM DTT), a stop solution (STOP A and B solutions which are available from Upstate were mixed at a ratio of 3:1) and a fluorescence detection solution (Detection solutions A, B and C which are available from Upstate were mixed at a ratio of 1:1:18) were prepared. 1 mM of PIP2 substrate (phosphatidylinositol 4,5 biphosphate; Upstate), PI3Kγ (#14-558; Upstate) enzyme and 10 mM ATP (Sigma Aldrich Co., St. Louis, Mo., USA) were prepared. Each of PI3Kγ, 1 mM PIP2 and 10 mM ATP was diluted to 2.9 μg/ml (final reaction concentration: 1.45 μg/ml), 20 μM (final reaction concentration: 10 μM) and 40 μM (final reaction concentration: 10 μM), respectively. The buffer solution used for dilution and preparation process was the phosphorylation reaction solution. The stop solution was used for the termination of phosphorylation reaction, and the fluorescence detection solution was used for the detection of time-resolved fluorescence signals.
(§3) Each test sample was transferred to a 384 well low flange white flat bottom microplate (#3572, Corning Life Sciences, Lowell, Mass., USA) by using a multi 8-channel (Pipetman Neo multi 8×20, Gilson, Middleton, Wis., USA) to make a final phosphorylation reaction volume of 20 μl per each well. For the negative control, 5 μl of 14.4% DMSO and 10 μl of PIP2 substration solution were used, and 5 μl of 14.4% DMSO and 10 μl of PIP2/PI3Kγ mixed solution were used as the positive control. For the test group, 5 μl of a solution prepared by dissolving the compound obtained in Example in DMSO and 10 μl of PIP2/PI3Kγ mixed solution were used. Before the initiation of the phosphorylation reaction, sample compounds were pretreated with the enzyme for approximately 10 minutes, and then the phosphorylation reaction was induced by adding 5 μl of ATP. Since each of the test compound and ATP takes up 25% of the total volume, and PIP2 and PI3Kγ take up 50% of the total volume during the reaction, each solution was concentrated 4 and 2 times, respectively, before mixing the solutions. Subsequently, the test sample was gently shook for 3 minutes and subjected to a phosphorylation reaction for 90 minutes at room temperature, which was then added with 5 μl of the stop solution to terminate the phosphorylation reaction. In order to induce a time-resolved fluorescence reaction, 5 μl of the fluorescence detection solution was added to the sample. The fluorescence detection solution contains biotin-phosphatidylinositol 3,4,5-triphosphate (PIP3), streptavidin-labeled Allopycocyanin (APC) and europium-labeled Pleckstrin homology domain (the PIP3 binds to PH domain), and the time-resolved fluorescence reaction is induced by a series of reaction of PH domain and PIP3, and biotin and streptavidin. The sample was left to stand for 6 hours at room temperature, and the time-resolved fluorescence resonance energy transfer (TR-FRET) rate was measured (emission wavelength: 665 nm, 620 nm, excitation wavelength: 340 nm) by using a Flexstation3 Micro plate reader (Molecular Devices, USA). TR-FRET Rate and TR-Inhibition Rate were calculated based on Equations 1 and 2 below, and the results are expressed in IC50, which is the concentration of a compound that inhibits 50% of PI3Kγ activity in vitro. TR-FRET Rate=(665 nm emission wavelength/620 nm emission wavelength)×10000 <Equation 1> TR-FRET Inhibition Rate=[(TR-FRET Rate of Sample−TR-FRET Rate of Negative Control)/(TR-FRET Rate of Positive Control−TR-FRET Rate of Negative Control)]×100 <Equation 2> […]

The target in the next test is PI3K β (p110β/p85α)(h) (Homo sapiens, UniProt P42338). As to the kind of experiment: Assay for phosphatidylinositol 3-kinase beta (PI3Kβ) activity, PI3K-HTRF kit. The conditions noted are these: TR-FRET; enzyme 0.725 μg/ml, 10 μM PIP2, 10 μM ATP. The procedure: [The source words this procedure for another target and says it was used here with some conditions changed.] as §1, §2, §3
(TR-FRET usually uses a lanthanide donor and a delayed reading to cut background.)

The target of a further test is PI3Kα (p110α/p85α)(h) (Homo sapiens, UniProt P42336). In words: Assay for phosphatidylinositol 3-kinase alpha (PI3Kα) activity, PI3K-HTRF kit. The conditions noted are these: TR-FRET; enzyme 0.3625 μg/ml, 10 μM PIP2, 10 μM ATP. The procedure: [The source words this procedure for another target and says it was used here with some conditions changed.] as §1, §2
(§4) Each test sample was transferred to a 384 well low flange white flat bottom microplate (#3572, Corning Life Sciences, Lowell, Mass., USA) by using a multi 8-channel (Pipetman Neo multi 8×20, Gilson, Middleton, Wis., USA) to make a final phosphorylation reaction volume of 20 μl per each well. For the negative control, 5 μl of 14.4% DMSO and 10 μl of PIP2 substration solution were used, and 5 μl of 14.4% DMSO and 10 μl of PIP2/PI3Kγ mixed solution were used as the positive control. For the test group, 5 μl of a solution prepared by dissolving the compound obtained in Example in DMSO and 10 μl of PIP2/PI3Kγ mixed solution were used. Before the initiation of the phosphorylation reaction, sample compounds were pretreated with the enzyme for approximately 10 minutes, and then the phosphorylation reaction was induced by adding 5 μl of ATP. Since each of the test compound and ATP takes up 25% of the total volume, and PIP2 and PI3Kγ take up 50% of the total volume during the reaction, each solution was concentrated 4 and 2 times, respectively, before mixing the solutions. Subsequently, the test sample was gently shook for 3 minutes and subjected to a phosphorylation reaction for 90 minutes at room temperature, which was then added with 5 μl of the stop solution to terminate the phosphorylation reaction. In order to induce a time-resolved fluorescence reaction, 5 μl of the fluorescence detection solution was added to the sample. The fluorescence detection solution contains biotin-phosphatidylinositol 3,4,5-triphosphate (PIP3), streptavidin-labeled Allopycocyanin (APC) and europium-labeled Pleckstrin homology domain (the PIP3 binds to PH domain), and the time-resolved fluorescence reaction is induced by a series of reaction of PH domain and PIP3, and biotin and streptavidin. The sample was left to stand for 6 hours at room temperature, and the time-resolved fluorescence resonance energy transfer (TR-FRET) rate was measured (emission wavelength: 665 nm, 620 nm, excitation wavelength: 340 nm) by using a Flexstation3 Micro plate reader (Molecular Devices, USA). TR-FRET Rate and TR-Inhibition Rate were calculated based on Equations 1 and 2 below, and the results are expressed in IC50, which is the concentration of a compound that inhibits 50% of PI3Kγ activity in vitro. TR-FRET Rate=(665 nm emission wavelength/620 nm emission wavelength)×10000 <Equation 1> TR-FRET Inhibition Rate=[(TR-FRET Rate of Sample−TR-FRET Rate of Negative Control)/(TR-FRET Rate of Positive Control−TR-FRET Rate of Negative Control)]×100 <Equation 2>

For the next test, the target named is PI3Kγ (p120γ)(h) (Homo sapiens, UniProt P48736). As to the kind of experiment: Assay for phosphatidylinositol 3-kinase gamma (PI3Kγ) activity, PI3K-HTRF kit. The conditions noted are these: TR-FRET; enzyme 1.45 μg/ml, 10 μM PIP2, 10 μM ATP. The procedure: as §1, §2, §4

13 compounds from patent publication US9493478B2, “Fused ring compound containing furan or salt thereof and pharmaceutical composition comprising same” (YUHAN CORPORATION, priority 2012, dated 2016) can be followed below.

Usually IC50 stands for the concentration at which inhibition is half-maximal. A high value points to a need for much substance.

PI3K β (p110β/p85α)(h), sequence (P42338 whole entry): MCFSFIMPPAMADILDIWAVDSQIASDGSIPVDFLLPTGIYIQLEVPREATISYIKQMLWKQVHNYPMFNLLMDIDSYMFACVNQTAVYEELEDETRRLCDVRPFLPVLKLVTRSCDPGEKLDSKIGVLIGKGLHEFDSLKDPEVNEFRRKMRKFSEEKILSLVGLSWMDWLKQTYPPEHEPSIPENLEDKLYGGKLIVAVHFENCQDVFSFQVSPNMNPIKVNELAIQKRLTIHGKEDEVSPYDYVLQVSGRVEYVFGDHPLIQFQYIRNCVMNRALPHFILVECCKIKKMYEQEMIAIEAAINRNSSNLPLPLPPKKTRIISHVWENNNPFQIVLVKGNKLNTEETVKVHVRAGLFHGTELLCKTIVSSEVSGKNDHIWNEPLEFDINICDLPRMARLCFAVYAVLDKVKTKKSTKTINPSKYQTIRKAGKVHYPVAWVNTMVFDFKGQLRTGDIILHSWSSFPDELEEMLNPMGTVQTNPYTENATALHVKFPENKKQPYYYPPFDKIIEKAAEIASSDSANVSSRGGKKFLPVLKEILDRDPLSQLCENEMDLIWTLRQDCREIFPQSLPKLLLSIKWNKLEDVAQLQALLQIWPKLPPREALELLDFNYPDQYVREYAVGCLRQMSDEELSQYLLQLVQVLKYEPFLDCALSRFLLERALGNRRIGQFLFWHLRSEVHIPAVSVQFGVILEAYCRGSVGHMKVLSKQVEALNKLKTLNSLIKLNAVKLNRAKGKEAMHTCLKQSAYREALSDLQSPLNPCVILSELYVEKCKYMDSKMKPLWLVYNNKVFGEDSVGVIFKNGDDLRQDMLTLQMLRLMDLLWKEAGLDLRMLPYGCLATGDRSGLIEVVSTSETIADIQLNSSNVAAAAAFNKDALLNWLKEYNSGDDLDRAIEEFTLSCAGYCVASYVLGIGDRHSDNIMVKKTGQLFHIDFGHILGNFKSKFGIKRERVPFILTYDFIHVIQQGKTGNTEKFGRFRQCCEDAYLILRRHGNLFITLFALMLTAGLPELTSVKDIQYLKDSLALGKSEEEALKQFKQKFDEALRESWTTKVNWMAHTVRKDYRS
PI3K β (p110β/p85α)(h), sequence (P27986 whole entry partner): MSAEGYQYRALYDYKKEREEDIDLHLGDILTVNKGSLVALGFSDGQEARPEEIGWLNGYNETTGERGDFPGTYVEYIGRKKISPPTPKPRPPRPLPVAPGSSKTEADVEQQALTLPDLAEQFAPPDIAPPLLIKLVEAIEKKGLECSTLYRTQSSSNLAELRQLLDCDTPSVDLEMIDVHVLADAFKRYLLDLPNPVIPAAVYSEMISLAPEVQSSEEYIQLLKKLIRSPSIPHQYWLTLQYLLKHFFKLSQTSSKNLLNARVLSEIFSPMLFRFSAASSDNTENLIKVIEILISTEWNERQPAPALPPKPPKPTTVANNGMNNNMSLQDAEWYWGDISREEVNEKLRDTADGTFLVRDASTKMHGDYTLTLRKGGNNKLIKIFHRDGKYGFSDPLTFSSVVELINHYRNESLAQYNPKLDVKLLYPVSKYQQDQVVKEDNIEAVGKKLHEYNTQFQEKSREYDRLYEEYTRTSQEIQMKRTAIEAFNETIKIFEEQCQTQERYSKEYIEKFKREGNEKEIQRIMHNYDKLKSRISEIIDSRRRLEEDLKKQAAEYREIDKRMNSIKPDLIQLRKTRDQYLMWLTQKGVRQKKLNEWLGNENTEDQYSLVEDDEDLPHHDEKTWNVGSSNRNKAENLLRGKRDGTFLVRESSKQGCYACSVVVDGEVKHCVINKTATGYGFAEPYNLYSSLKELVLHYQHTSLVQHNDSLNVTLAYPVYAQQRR
PI3Kγ (p120γ)(h), sequence (P48736 whole entry): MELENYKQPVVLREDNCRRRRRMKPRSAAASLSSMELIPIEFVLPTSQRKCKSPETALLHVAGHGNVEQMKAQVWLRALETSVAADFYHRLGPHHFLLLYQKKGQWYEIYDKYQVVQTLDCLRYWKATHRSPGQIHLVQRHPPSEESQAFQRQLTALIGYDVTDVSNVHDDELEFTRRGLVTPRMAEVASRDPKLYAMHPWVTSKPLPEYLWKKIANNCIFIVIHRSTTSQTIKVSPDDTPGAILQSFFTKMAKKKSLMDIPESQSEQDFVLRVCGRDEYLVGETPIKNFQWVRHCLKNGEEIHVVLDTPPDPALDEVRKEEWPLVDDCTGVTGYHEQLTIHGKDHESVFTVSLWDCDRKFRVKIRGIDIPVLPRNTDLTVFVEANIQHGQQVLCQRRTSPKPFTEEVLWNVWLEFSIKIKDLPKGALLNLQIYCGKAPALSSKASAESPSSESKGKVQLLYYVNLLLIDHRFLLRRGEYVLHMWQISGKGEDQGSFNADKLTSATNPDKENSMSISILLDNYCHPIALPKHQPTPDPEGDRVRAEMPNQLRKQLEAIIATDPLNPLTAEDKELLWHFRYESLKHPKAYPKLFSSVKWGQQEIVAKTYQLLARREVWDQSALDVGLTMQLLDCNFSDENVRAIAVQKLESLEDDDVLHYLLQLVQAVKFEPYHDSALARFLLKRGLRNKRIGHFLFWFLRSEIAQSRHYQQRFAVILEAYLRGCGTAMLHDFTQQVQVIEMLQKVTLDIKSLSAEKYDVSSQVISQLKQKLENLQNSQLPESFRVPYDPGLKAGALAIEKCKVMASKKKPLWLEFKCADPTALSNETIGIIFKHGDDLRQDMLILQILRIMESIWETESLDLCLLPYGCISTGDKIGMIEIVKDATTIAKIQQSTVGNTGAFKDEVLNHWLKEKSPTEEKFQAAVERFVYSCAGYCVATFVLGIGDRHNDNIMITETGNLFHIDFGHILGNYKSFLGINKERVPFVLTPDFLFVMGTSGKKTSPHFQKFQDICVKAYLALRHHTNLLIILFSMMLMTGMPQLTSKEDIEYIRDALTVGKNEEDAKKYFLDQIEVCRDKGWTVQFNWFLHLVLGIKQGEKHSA
PI3Kα (p110α/p85α)(h), sequence (P42336 whole entry): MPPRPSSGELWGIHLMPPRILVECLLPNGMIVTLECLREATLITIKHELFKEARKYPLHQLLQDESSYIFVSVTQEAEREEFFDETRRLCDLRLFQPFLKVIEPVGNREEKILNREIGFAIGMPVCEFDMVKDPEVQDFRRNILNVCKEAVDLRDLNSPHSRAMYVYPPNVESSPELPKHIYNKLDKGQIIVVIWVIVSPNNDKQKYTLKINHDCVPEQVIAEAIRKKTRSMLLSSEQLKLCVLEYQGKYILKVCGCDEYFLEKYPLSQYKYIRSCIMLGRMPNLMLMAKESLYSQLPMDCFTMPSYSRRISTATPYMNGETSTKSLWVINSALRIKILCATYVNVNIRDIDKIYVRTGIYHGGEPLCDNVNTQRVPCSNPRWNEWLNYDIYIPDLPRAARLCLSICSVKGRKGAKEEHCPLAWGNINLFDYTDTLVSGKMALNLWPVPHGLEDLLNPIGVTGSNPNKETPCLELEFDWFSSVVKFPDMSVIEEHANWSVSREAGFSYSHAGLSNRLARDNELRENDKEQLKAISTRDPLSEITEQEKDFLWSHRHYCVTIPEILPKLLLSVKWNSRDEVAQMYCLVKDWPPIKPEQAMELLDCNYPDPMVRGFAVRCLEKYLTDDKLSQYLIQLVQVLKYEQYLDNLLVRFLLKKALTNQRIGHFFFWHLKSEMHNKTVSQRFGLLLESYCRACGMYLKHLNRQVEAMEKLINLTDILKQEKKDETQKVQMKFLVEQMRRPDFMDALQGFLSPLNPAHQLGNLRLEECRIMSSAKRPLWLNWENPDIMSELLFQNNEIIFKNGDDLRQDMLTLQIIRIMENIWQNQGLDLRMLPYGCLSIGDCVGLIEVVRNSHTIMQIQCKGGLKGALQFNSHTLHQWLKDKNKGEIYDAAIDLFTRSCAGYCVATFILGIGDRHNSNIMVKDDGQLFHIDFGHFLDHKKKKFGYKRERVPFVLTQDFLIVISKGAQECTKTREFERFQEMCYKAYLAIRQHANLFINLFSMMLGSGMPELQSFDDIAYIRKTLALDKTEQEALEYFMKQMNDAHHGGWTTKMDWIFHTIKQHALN
PI3Kα (p110α/p85α)(h), sequence (P27986 whole entry partner): as the sequence (P27986 whole entry partner) above
PI3Kδ (p110δ/p85α)(h), sequence (O00329 whole entry): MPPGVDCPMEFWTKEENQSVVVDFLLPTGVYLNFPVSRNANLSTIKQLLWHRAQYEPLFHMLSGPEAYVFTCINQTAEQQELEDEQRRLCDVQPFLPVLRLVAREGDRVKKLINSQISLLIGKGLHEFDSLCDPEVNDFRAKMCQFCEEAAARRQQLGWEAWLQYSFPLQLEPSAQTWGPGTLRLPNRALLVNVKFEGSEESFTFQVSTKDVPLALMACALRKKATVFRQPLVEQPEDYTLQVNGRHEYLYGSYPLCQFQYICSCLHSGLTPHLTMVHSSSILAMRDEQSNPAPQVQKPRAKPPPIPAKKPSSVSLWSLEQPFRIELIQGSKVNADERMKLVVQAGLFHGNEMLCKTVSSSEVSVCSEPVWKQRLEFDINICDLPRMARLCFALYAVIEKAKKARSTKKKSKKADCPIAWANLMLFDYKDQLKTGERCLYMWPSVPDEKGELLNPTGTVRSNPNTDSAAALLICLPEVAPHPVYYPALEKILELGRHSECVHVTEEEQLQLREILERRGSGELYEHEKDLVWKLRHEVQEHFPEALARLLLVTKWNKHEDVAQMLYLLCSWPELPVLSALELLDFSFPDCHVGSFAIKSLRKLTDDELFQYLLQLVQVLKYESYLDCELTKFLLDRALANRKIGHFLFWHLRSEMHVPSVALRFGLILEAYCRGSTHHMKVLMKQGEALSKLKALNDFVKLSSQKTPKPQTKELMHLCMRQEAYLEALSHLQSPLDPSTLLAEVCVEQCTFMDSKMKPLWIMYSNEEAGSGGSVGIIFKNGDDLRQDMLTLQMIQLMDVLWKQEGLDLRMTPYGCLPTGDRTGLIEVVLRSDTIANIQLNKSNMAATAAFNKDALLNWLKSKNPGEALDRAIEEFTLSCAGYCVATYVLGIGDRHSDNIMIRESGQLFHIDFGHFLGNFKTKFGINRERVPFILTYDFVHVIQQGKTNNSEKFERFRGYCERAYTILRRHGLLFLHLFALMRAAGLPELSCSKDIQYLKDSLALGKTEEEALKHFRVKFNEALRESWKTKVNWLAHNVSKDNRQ
PI3Kδ (p110δ/p85α)(h), sequence (P27986 whole entry partner): as the sequence (P27986 whole entry partner) above

Consider `CSc1ccc(-c2cncc3cc(/C=C4\SC(=O)NC4=O)oc23)cn1` [Example 41, (Z)-5-([7-{6-(Methylthio)pyridin-3-yl}furo[3,2-c]pyridin-2-yl]methylene)thiazolidine-2,4-dione], for which the IC50 at PI3Kδ (p110δ/p85α)(h) was determined as 322 nM; at PI3K β (p110β/p85α)(h), 100 nM; at PI3Kα (p110α/p85α)(h), 12 nM; against PI3Kγ (p120γ)(h), 13 nM.

For the compound `CCOc1ccc(-c2cncc3cc(/C=C4\SC(=O)NC4=O)oc23)cc1Cl` [Example 51, (Z)-5-[{7-(3-Chloro-4-ethoxyphenyl)furo[3,2-c]pyridin-2-yl}methylene]thiazolidine-2,4-dione], the IC50 at PI3Kδ (p110δ/p85α)(h) was greater than 10000 nM; against PI3K β (p110β/p85α)(h), greater than 10000 nM; at PI3Kα (p110α/p85α)(h), 5 nM; against PI3Kγ (p120γ)(h) it was 12 nM.

Take `COc1c(C)cc(-c2cncc3cc(/C=C4\SC(=O)NC4=O)oc23)cc1C` [Example 73, (Z)-5-[{7-(4-Methoxy-3,5-dimethylphenyl)furo[3,2-c]pyridin-2-yl}methylene]thiazolidine-2,4-dione]: the IC50 against PI3Kδ (p110δ/p85α)(h) is greater than 10000 nM; at PI3K β (p110β/p85α)(h), greater than 10000 nM; on PI3Kα (p110α/p85α)(h), 10 nM; against PI3Kγ (p120γ)(h) it was 10 nM.

Take `COc1ccc(-c2cncc3cc(/C=C4\SC(=O)NC4=O)oc23)cc1C(F)(F)F` [Example 90, (Z)-5-([7-{4-Methoxy-3-(trifluoromethyl)phenyl}furo[3,2-c]pyridin-2-yl]methylene)thiazolidine-2,4-dione]: the IC50 came out at 6250 nM on PI3Kδ (p110δ/p85α)(h), 3570 nM against PI3K β (p110β/p85α)(h), 3 nM at PI3Kα (p110α/p85α)(h) and 5 nM on PI3Kγ (p120γ)(h).

In the case of `CCOc1ccc(-c2cncc3cc(/C=C4\SC(=O)NC4=O)oc23)cc1C(F)(F)F` [Example 94, (Z)-5-([7-{4-Ethoxy-3-(trifluoromethyl)phenyl}furo[3,2-c]pyridin-2-yl]methylene)thiazolidine-2,4-dione], the IC50 on PI3Kδ (p110δ/p85α)(h) is greater than 10000 nM; against PI3K β (p110β/p85α)(h), greater than 10000 nM; against PI3Kα (p110α/p85α)(h) it was 6 nM; on PI3Kγ (p120γ)(h), 8 nM.

Turning to `O=C1NC(=O)/C(=C/c2cc3cncc(C#Cc4ccccc4)c3o2)S1` [Example 125, (Z)-5-[{7-(Phenylethynyl)furo[3,2-c]pyridin-2-yl}methylene]thiazolidine-2,4-dione], the IC50 on PI3Kδ (p110δ/p85α)(h) was greater than 10000 nM; against PI3K β (p110β/p85α)(h), greater than 10000 nM; against PI3Kα (p110α/p85α)(h), 58 nM; on PI3Kγ (p120γ)(h), 12 nM.

`O=C1NC(=O)/C(=C/c2cc3cncc(-c4cccc(CN5CCCCC5)c4)c3o2)S1` [Example 132, (Z)-5-([7-{3-(Piperidin-1-ylmethyl)phenyl}furo[3,2-c]pyridin-2-yl]methylene)thiazolidine-2,4-dione]: the IC50 against PI3Kδ (p110δ/p85α)(h) was found to be 98 nM; on PI3K β (p110β/p85α)(h), 337 nM; on PI3Kα (p110α/p85α)(h), 22 nM; at PI3Kγ (p120γ)(h), 95 nM.

For the compound `CN1CCN(Cc2ccc(-c3cncc4cc(/C=C5\SC(=O)NC5=O)oc34)cc2)CC1` [Example 134, (Z)-5-{(7-[4-{(4-Methylpiperazin-1-yl)methyl}phenyl]furo[3,2-c]pyridin-2-yl)methylene}thiazolidine-2,4-dione], the IC50 against PI3Kδ (p110δ/p85α)(h) was 54 nM; against PI3K β (p110β/p85α)(h), greater than 1000 nM; on PI3Kα (p110α/p85α)(h), 95 nM; against PI3Kγ (p120γ)(h), 344 nM.

Take `O=C1NC(=O)/C(=C/c2cc3cncc(-c4cccc(NS(=O)(=O)c5ccccc5)c4)c3o2)S1` [Example 141, (Z)—N-(3-[2-{(2,4-Dioxothiazolidin-5-ylidene)methyl}furo[3,2-c]pyridin-7-yl]phenyl)benzenesulfonamide]: the IC50 against PI3Kδ (p110δ/p85α)(h) was 51 nM; against PI3K β (p110β/p85α)(h), 23 nM; against PI3Kα (p110α/p85α)(h), 21 nM; at PI3Kγ (p120γ)(h), 108 nM.

On to `O=C1NC(=S)S/C1=C\c1cc2cncc(-c3ccc(F)nc3)c2o1` [Example 153, (Z)-5-[{7-(6-Fluoropyridin-3-yl)furo[3,2-c]pyridin-2-yl}methylene]-2-thioxothiazolidin-4-one], for which the IC50 against PI3Kδ (p110δ/p85α)(h) was 246 nM; on PI3K β (p110β/p85α)(h), 115 nM; on PI3Kα (p110α/p85α)(h) it was 10 nM; against PI3Kγ (p120γ)(h), 16 nM.

Regarding `COc1ccc(-c2cncc3cc(/C=C4\SC(=S)NC4=O)oc23)cc1F` [Example 161, (Z)-5-[{7-(3-Fluoro-4-methoxyphenyl)furo[3,2-c]pyridin-2-yl}methylene]-2-thioxothiazolidin-4-one], the IC50 at PI3Kδ (p110δ/p85α)(h) is 191 nM; against PI3K β (p110β/p85α)(h), greater than 10000 nM; on PI3Kα (p110α/p85α)(h), 13 nM; against PI3Kγ (p120γ)(h), 17 nM.

As to `O=C1NC(=S)S/C1=C\c1cc2cncc(-c3ccc4c(c3)CCO4)c2o1` [Example 187, (Z)-5-[{7-(2,3-Dihydrobenzofuran-5-yl)furo[3,2-c]pyridin-2-yl}methylene]-2-thioxothiazolidin-4-one], the IC50 is greater than 10000 nM against PI3Kδ (p110δ/p85α)(h), greater than 10000 nM against PI3K β (p110β/p85α)(h), 5 nM against PI3Kα (p110α/p85α)(h) and 10 nM on PI3Kγ (p120γ)(h).

Consider `Cc1cc(-c2cncc3cc(/C=C4\SC(=S)NC4=O)oc23)cnc1F` [Example 195, (Z)-5-[7-(6-Fluoro-5-methylpyridin-3-yl)-furo[3,2-c]pyridin-2-ylmethylene]-2-thioxothiazolidin-4-one], for which the IC50 on PI3Kδ (p110δ/p85α)(h) was found to be 1900 nM; at PI3K β (p110β/p85α)(h), 156 nM; against PI3Kα (p110α/p85α)(h) it was 2 nM; against PI3Kγ (p120γ)(h) it was 3 nM.
